# Results: US6667157B1, “Compositions and methods for the abrogation of cellular proliferation utilizing the human immunodeficiency virus VPR protein” (priority 1994, dated 2003)
# Experiments:
# HIV LTR = test: LTR-CAT assay in RD cells transfected with pBennCAT; type: cell-based, HIV-1; settings: for increase in CAT activity over the controls: agent added to medium of LTR-CAT transfected RD cells, harvested 48 hours later
# Description: Induction of the HIV-LTR was measured as a function of a reporter gene (CAT) function. pBennCAT, an LTR-CAT encoding construct, obtained from M. Martin, through the NIH ARRRP was used. The levels of CAT protein were measured using a CAT ELISA capture assay (Boehringer Mannheim), following manufacturer's specifications. The levels of CAT activity were measured by a chloramphenicol acetyltransferase assay, according to published procedures (Gorman, et al., 1982, The Rous sarcoma virus long terminal repeat is a strong promoter when introduced into a variety of eukaryotic cells by DNA mediated transfection. Proc. Natl. Acad. Sci. USA. 79, 6777-6781). Briefly, RD cells were transfected with pBennCAT (Gendelman, 1986, Trans-activation of the Human immunodeficiency virus long terminal repeat sequence by DNA viruses. Proc. Natl. Acad. Sci. USA. 83, 9759-9763), using DOTAP. Cells were washed 12 hours later and new medium, containing the test reagents was added to the cell monolayers. 48 hours later, cells were washed three times with Ca+2/Mg+2 free PBS. Cells were then scraped off the plate, and collected with 1 ml PBS. Cell pellets were lysed by resuspending them in 100 μl 0.25M Tris, pH 7.8, and undergoing three freeze-thaw cycles using an ethanol-dry ice bath, and a 37° C. water bath. Lysates were spun at 12,000 G for 5 minutes and samples were stored at −20° C. until they were used. The CAT reaction was set up using 5 μl C^14 chloramphenicol (40-50 mCi/mmole), 70 μl ddH2O, 35 μl 1M Tris, pH 7.8, 20 μl 4 mM acetyl Coa (Pharmacia), 20 μl cell lysate. The reactions were incubated at 37° C. for an hour, and subsequently extracted with 1 ml ethyl acetate. After resuspension in 20 μl ethyl acetate, samples were spotted on the silica gel TLC plates (Whatman), and developed in chloroform:methanol (95:5); ascending. Gels were dried and exposed to film (Kodak XAR) overnight at room temperature. The panel of HIV-1 LTR/CAT mutants were obtained from Dr. Joseph Stevens, through the NIH ARRRP. pGRE5/CAT was obtained from United States Biochemicals.
# The possibility that activation of the GR pathway could play a central role in the viral transcription process was considered. To test this, RD cells were transfected with an LTR-CAT encoding plasmid (pBennCAT) (Gendelman, 1986, supra), without selection. 12 hours later, the cell monolayers were washed and fresh medium containing the test reagents was added to the cultures, and 48 hours later the cells were harvested. In these studies, the co-transfection of a vpr encoding plasmid with the LTR-CAT encoding plasmid produced an increase in CAT activity of 5-10 fold over the controls, as has been previously reported. […] Vpr protein was detected in the tissue culture media of these cells, as assessed by capture ELISA.
# rip-1 = rip-1 cytoplasmic to nuclear translocation (cellular fractionation, vpr-ligand blot); type: cell-based; settings: for nuclear translocation of rip-1: exposure of cells to agent, steroids at 10^−6M
# Description: 3×10^6 cells were washed twice in PBS, and lysed in 200 μl of lysis buffer (150 mM NaCl, 50 mM Tris, pH 8.0, 0.5% Triton X-100, plus protease inhibitors: aprotinin, leupeptin, pepstatin A, each at 2 μg/ml; PMSF, 1 mM, and EDTA, 1 mM). Cell suspension was incubated on ice for 10 minutes with frequent vortexing, and centrifuged at 12000 g for 6 minutes. The soluble, as well as the insoluble fractions were run on 12% SDS-PAGE, and transferred to PVDF membranes (Millipore), as described. Membranes were blocked with 5% non fat dry milk, in TBS supplemented with 0.05% Tween-20. Blocked membranes were incubated with either purified vpr protein (approximately 50 ng/ml) or an irrelevant protein. These membranes were then incubated with 808 rabbit anti vpr antiserum Levy, et al. 1994b, supra, followed by I^125 protein G (NEN), and exposed to film for at least 12 hours at −80° C.
# HIV-1 NL43 Δvpr = test: Complementation in trans of HIV-1 NL43 Δvpr in nonproductively infected U937 cells (virus production); type: cell-based; settings: for complementation in trans of HIV-1 NL43 Δvpr virus: agent added to tissue culture medium of nonproductively infected U937 cells
# Description: (§1) The following cell lines were obtained from the American Type Culture Collection; TE671 human embryonal rhabdomyosarcoma (ATCC HTB139), A673 embryonal rhabdomyosarcoma (ATCC CRL 1598), D17 canine osteosarcoma (ATCC CCL183), HOS human osteosarcoma (ATCC CRL 1543), U373 human glioblastoma (ATCC HTB17), SK-N-MC neuroblastoma (ATCC HTB10). Two additional glioblastoma lines were kindly provided by the Medical Research Council (MRC), England, (HT17 and HT16). U87MG (HTB14) is a glial cell line obtained from the University of Pennsylvania Cell Center. RD rhabdomyosarcoma cells were provided by Dr. A. Srinivasan. The T lymphocytic cells H9 and SupT-I were obtained from the University of Pennsylvania Cell Center, and KG-1 was obtained from Dr. G. Trinchieri. The murine NIH 3T3 line was obtained from ATCC. BSC-1, CV-1 and COS cell lines were obtained Dr. B. Moss. Primary PBL as well as primary monocytes/macrophages were isolated as in Levy, et al. 1994b, supra. All non-hematopoietic cells were cultured in DMEM with 10% heat inactivated fetal calf serum, penicillin/streptomycin, I-glutamine, Hepes (25 mM) and sodium pyruvate. Hematopoietic cells were cultured in RPMl 1640 as above except using 10% autologous human serum. Virus were prepared as described in Levy, et al., 1994b, supra; Levy, et al., 1994a, supra, which are incorporated herein by reference.
# The rabbit anti-vpr peptide serum (aa 2-21, “808”) was obtained from Bryan Cullen through the NIH ARRRP. The human anti-gag p24 (V7.8) was obtained from Ronald Kennedy through the NIH ARRRP. The sheep anti-p24 was obtained from the FDA through the NIH ARRRP. […]
# Such nonproductively infected cells can be rescued for p24 production by addition of exogenous vpr protein (Levy, et al., 1994a, supra; Levy, et al., 1994b, supra). […] When the nonproductively infected U937 cells described above were exposed to vpr protein, rip-1 translocated 12 hours later, and virus was first detected in the media 36 hours after the initial exposure to vpr. […]
# HIV-1 NL43 = test: Virus production by HIV-1 NL43 infected U937 cells; type: cell-based
# Description: as §1, with “reference. […]” for “reference.”
Compound,increase in CAT activity over the controls (HIV LTR),nuclear translocation of rip-1 (rip-1),complementation in trans of HIV-1 NL43 Δvpr virus (HIV-1 NL43 Δvpr),other results
C[C@@H]1C[C@H]2[C@@H]3CCC4=CC(=O)C=C[C@]4(C)[C@@]3(F)[C@@H](O)C[C@]2(C)[C@@]1(O)C(=O)CO [Dexamethasone],ca. 50 fold,–,–,–
C[C@]12CCC(=O)C=C1CC[C@@H]1[C@@H]2[C@@H](O)C[C@@]2(C)[C@H]1CC[C@]2(O)C(=O)CO [Hydrocortisone],ca. 50 fold,induced the nuclear translocation of rip-1,complemented in trans,–
CCCCCCCCCCCCCC(=O)O[C@@H]1[C@@H](C)[C@@]2(O)[C@@H](C=C(CO)C[C@]3(O)C(=O)C(C)=C[C@@H]23)[C@@H]2C(C)(C)[C@]12OC(C)=O [PMA],–,not,–,–
CC#C[C@]1(O)CC[C@H]2[C@@H]3CCC4=CC(=O)CCC4=C3[C@@H](c3ccc(N(C)C)cc3)C[C@@]21C [mifepristone],–,–,–,"effect on vpr induced translocation of rip-1 (rip-1; mifepristone 10^−6M): inhibited; effect on rip-1 nuclear translocation induced by Dexamethasone and Hydrocortisone (rip-1; mifepristone added to culture medium, 10^−6M): blocked; effect on transcomplementation of HIV-1 NL43 Δvpr infected U937 cells by vpr protein (HIV-1 NL43 Δvpr; mifepristone treatment): abolished; levels of virus produced, lower than the untreated cultures (HIV-1 NL43; HIV-1 infected cells exposed to mifepristone, 10^−6M): about 70%; inhibition of the enhancement in virus production by addition of vpr protein (HIV-1 NL43; infected cells plus vpr protein, mifepristone 10^−6M): 80-90 % inhibition; effect on increase in CAT activity stimulated by vpr protein or steroids (HIV LTR; cultures supplemented with mifepristone): inhibited; effect on increase in CAT activity in cells cotransfected with vpr encoding plasmid and LTR-CAT plasmid (HIV LTR; mifepristone): blocked"
cyclodextrin,–,failed to induce the nuclear translocation of rip-1,not affected,–
